According to the NIST ThermoML archive (doi:10.1016/j.jct.2018.04.009):

Key:
[1] = Crystal; Adiabatic calorimetry
[2] = Molar enthalpy of transition or fusion; conditions: Crystal; Adiabatic calorimetry
[3] = molar heat capacity at constant pressure; conditions: 101.33 kPa, Small (less than 1 g) adiabatic calorimetry

c1ccc(Oc2ccccc2)cc1 [diphenyl ether]
Conditions	Molar enthalpy of transition or fusion [kJ/mol]	Triple point temperature [K]
[1]	–	299.96
[2]	17.12	–

[3]
Conditions	molar heat capacity at constant pressure [J/K/mol]
282.08 K, Crystal	202.2
283.34 K, Crystal	202.92
285.84 K, Crystal	203.66
287.09 K, Crystal	205.43
288.33 K, Crystal	206.1
289.59 K, Crystal	207.25
290.84 K, Crystal	208.01
292.1 K, Crystal	209.17
321.46 K, Liquid	276.46
323.17 K, Liquid	278.21
324.89 K, Liquid	278.93
326.63 K, Liquid	279.41
328.37 K, Liquid	279.66
330.1 K, Liquid	280.76
331.85 K, Liquid	281.87
333.61 K, Liquid	282.69
335.38 K, Liquid	283.24
